Assay results reported in US6534523B1, “Hepatitis C inhibitor tri-peptides” (Boehringer Ingelheim (Canada) Ltd., priority 1998, dated 2003).

Legend:
HCV NS3 protease = HCV NS3 protease (UniProt P26663); assay type: biochemical, HCV genotype 1b; set-up: rows headed: IC50 (μM); IC50 (μM); conditions: Table 6
[1] = target: bovine pancreatic α-chymotrypsin (Bos taurus, UniProt P00766); test: Specificity assay (Example 40), bovine pancreatic α-chymotrypsin; assay type: biochemical; conditions: read-out: α-Chym. activity in the specificity assay of Example 40
Description: The specificity of the compounds was determined against a variety of serine proteases: human leukocyte elastase, porcine pancreatic elastase and bovine pancreatic α-chymotrypsin and one cysteine protease: human liver cathepsin B. In all cases a 96-well plate format protocol using a calorimetric p-nitroaniline (pNA) substrate specific for each enzyme was used. Each assay included a 1 h enzyme-inhibitor pre-incubation at 30° C. followed by addition of substrate and hydrolysis to ≈30% conversion as measured on a UV Thermomax® microplate reader. Substrate concentrations were kept as low as possible compared to KM to reduce substrate competition. Compound concentrations varied from 300 to 0.06 μM depending on their potency.
The final conditions for each assay were as follows:
50 mM Tris-HCl pH 8, 0.5 M Na2SO4, 50 mM NaCl, 0.1 mM EDTA, 3% DMSO, 0.01% Tween-20 with;
[100 μM Succ-AAPF-pNA and 250 pM α-chymotrypsin], [133 μM Succ-AAA-pNA and 8 nM porcine elastase], [133 μM Succ-AAV-pNA and 8 nM leukocyte elastase]; or
The sequential 2-fold dilutions of the inhibitor solution were performed on a separate plate by the liquid handler using 50 mM Tris-HCl pH 8, 50 mM NaCl, 0.1 mM EDTA, 0.02% Tween-20, 15% DMSO. All other specificity assays were performed in a similar fashion.
The percentage of inhibition was calculated using the formula:
[1-((UVinh−UVblank)/(UVctl−UVblank))]×100 […]

HCV NS3 protease, sequence (P26663 1027-1206, other chains not shown): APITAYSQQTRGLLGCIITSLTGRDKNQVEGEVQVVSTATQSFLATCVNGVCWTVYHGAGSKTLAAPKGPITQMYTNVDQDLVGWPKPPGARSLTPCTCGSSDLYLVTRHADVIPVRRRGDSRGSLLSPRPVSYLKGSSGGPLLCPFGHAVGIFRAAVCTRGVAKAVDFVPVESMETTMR

For `C=C[C@@H]1C[C@]1(NC(=O)[C@@H]1C[C@@H](Oc2cc(-c3ccccc3)nc3cc(OC)ccc23)CN1C(=O)[C@@H](NC(=O)OC(C)(C)C)C(C)C)C(=O)O` [compound 601], which IC50 (HCV NS3 protease) is on record?
Its IC50 is 50 nM.

And the IC50 [1]?
The IC50 was over 75000 nM.
